Data set [1] has as its target T1, Amine oxidase [flavin-containing] A (Homo sapiens, UniProt P21397).
T1 sequence (P21397 whole entry): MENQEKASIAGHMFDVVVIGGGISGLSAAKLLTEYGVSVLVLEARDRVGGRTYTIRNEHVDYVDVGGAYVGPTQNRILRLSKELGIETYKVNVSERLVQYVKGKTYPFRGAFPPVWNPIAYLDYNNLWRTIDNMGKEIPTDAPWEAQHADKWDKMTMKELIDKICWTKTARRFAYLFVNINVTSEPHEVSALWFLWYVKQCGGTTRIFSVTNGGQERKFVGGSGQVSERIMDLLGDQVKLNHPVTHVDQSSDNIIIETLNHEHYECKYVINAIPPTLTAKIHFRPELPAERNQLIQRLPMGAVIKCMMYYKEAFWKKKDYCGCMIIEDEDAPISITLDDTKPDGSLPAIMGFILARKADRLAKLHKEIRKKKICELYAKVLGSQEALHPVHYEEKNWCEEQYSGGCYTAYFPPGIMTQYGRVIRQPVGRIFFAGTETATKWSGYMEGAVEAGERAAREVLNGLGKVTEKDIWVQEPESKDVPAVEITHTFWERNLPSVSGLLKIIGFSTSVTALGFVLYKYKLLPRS
Nature of the data set: Inhibition of human recombinant MAO-A using p-tyramine as substrate assessed as H2O2 production at 100 uM after 15 mins by fluorescence assay. The note with it: 0.25 h.

Data set [2] concerns the target T2, Amine oxidase [flavin-containing] B (Homo sapiens, UniProt P27338).
T2 sequence (P27338 whole entry): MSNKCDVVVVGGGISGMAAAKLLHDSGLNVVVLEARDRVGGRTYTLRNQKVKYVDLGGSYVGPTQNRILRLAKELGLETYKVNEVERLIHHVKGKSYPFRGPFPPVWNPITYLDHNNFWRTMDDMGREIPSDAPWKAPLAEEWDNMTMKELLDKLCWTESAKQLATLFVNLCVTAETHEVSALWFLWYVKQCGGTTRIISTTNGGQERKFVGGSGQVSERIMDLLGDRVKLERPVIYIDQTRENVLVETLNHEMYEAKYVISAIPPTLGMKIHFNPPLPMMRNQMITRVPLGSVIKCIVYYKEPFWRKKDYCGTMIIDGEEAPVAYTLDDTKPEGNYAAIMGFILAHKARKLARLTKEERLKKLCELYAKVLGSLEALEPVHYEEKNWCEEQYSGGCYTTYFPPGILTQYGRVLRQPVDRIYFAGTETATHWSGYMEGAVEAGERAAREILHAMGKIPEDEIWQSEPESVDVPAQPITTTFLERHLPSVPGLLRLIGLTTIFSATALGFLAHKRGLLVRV
Kind of data set: Inhibition of human recombinant MAO-B using p-tyramine as substrate assessed as H2O2 production after 15 mins by fluorescence assay.

Data set [3] addresses Amyloid-beta precursor protein (Homo sapiens) (UniProt P05067). Nature of the data set: Inhibition of amyloid beta (1 to 42) (unknown origin) self-induced aggregation at 20 uM after 46 to 48 hrs by thioflavin-T fluorescence method.
Data set [4] in a line: Permeability of the compound after 16 hrs by PAMPA. The data set is classed as ADME. The conditions noted are these: read-out: Peff.
Data set [5] has as its target T2, Amine oxidase [flavin-containing] B. Kind of data set: Irreversible inhibition of human MAO-B at 2 times IC50 using p-tyramine as substrate assessed as H2O2 production after 0 to 60 mins.
Data set [6] can be described thus: Cytotoxicity against rat PC12 cells assessed as cell viability at 1 to 100 uM after 24 hrs by MTT assay. The format is cell-based. The note with it: pc-12, 24 h.
The nature of data set [7]: Cytotoxicity against human SH-SY5Y cells assessed as cell viability at 1 to 100 uM after 24 hrs by MTT assay. The data set is classed as cell-based.
Data set [8] addresses T2, Amine oxidase [flavin-containing] B. Nature of the data set: Ratio of pargyline IC50 to compound IC50 for human recombinant MAO-B.
A short description of data set [9]: Metal chelating activity of the compound assessed as formation of copper complex at 35 uM by UV-Vis spectrophotometry. The format is physicochemical.

Structures are written as SMILES.

Sequence of Amyloid-beta precursor protein (Homo sapiens) (P05067 whole entry): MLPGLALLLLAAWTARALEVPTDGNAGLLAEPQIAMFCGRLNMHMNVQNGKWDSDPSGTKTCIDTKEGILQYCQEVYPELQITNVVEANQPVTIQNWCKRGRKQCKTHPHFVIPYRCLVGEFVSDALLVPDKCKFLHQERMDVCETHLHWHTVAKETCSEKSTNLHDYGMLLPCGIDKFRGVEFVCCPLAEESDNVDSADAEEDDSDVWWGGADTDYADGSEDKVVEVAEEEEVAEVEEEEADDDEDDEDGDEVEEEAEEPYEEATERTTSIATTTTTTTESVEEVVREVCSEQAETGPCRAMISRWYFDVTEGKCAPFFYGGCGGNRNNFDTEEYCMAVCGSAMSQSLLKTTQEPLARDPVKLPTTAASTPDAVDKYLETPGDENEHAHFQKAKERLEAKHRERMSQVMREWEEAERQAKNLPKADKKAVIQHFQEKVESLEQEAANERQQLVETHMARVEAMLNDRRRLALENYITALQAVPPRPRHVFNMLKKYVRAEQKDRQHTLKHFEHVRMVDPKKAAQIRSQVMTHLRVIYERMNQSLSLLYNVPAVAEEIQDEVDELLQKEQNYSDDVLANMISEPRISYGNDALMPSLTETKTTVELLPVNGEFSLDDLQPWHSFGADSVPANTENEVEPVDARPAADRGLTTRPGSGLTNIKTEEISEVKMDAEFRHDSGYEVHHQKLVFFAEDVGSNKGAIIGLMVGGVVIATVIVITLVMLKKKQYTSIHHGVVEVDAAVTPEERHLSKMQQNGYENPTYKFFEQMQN

Turning to `Cc1cc(=O)oc2cc(/N=C/c3ccccc3O)ccc12`, the inhibition at 100 µM in data set [1] is 47.2%. For the same compound, the half-inhibitory concentration (IC50) in data set [2] was found to be 723 nM. Besides, in data set [3], the inhibition came out at 44.8%.

Turning to `O=c1oc2cc(NCc3ccccc3O)ccc2c2c1CCCC2`, the inhibition at 100 µM in data set [1] was 53.6%. For the same compound, the IC50 in data set [2] turned out to be 1240 nM. Further, in data set [3], the inhibition was found to be 43.7%.

In data set [3], `Cc1cc(=O)oc2cc(/N=C/c3ccc(Br)cc3O)ccc12` returned an inhibition of 51.5%.

On to `Cc1c(C)c2ccc(/N=C/c3ccccc3O)cc2oc1=O`, for which the Papp at 16 h in data set [4] is 10.6 ×10⁻⁶ cm/s. In data set [3], the inhibition was determined as 53.9%.

On to `O=c1oc2cc(/N=C/c3ccccc3O)ccc2c2c1CCC2`, for which the Papp at 16 h in data set [4] was determined as 8.9 ×10⁻⁶ cm/s. Also, the “inhibition (INH)” value in [5] is listed as “Active”. Moreover, in data set [1], the inhibition at 100 µM is 3.5%. The Activity result in data set [6] is given as “Non-toxic”; in data set [7], “Non-toxic”; in data set [9], “Active”. In addition, in [2], the IC50 is 81 nM. Also, in [3], the inhibition came to 52.9%. The “Ratio IC50” value in data set [8] worked out at 2.

For the compound `C[C@]12C[C@H](O)[C@H]3[C@@H](CCC4=CC(=O)CC[C@@]43C)[C@@H]1CC[C@@H]2C(=O)CO` [CORTICOSTERONE], the Papp at 16 h in data set [4] came out at 1.09 ×10⁻⁶ cm/s.

Turning to `O=c1oc2cc(NCc3ccccc3O)ccc2c2c1CCC2`, the inhibition at 100 µM in data set [1] turned out to be 23.6%. Besides, the IC50 in data set [2] was determined as 9330 nM. In addition, the inhibition in data set [3] was found to be 41.6%.

Regarding `Cc1c(C)c2ccc(/N=C/c3ccccc3O)cc2[nH]c1=O`, the inhibition at 100 µM in data set [1] came to 17.7%. Further, the half-maximal inhibitory concentration (IC50) in data set [2] is 1680 nM. Also, the inhibition in data set [3] came to 49.1%.

Consider `C[C@]12CC[C@@H]3c4ccc(O)cc4CC[C@H]3[C@@H]1CC[C@@H]2O` [ESTRADIOL], for which the Papp at 16 h in [4] amounted to 8.33 ×10⁻⁶ cm/s.

On to `O=c1oc2cc(/N=C/c3ccc(O)cc3O)ccc2c2c1CCCC2`, for which, in data set [1], the inhibition at 100 µM came to 22.6%. Moreover, in data set [2], the IC50 stood at 3420 nM. The inhibition in data set [3] was determined as 58.5%.

In the case of `O=c1oc2cc(/N=C/c3ccc(O)cc3O)ccc2c2c1CCC2`, the Papp at 16 h in data set [4] turned out to be 4.7 ×10⁻⁶ cm/s. The inhibition at 100 µM in [1] was 67.6%. Also, the 50% inhibitory concentration (IC50) in data set [2] was 217 nM. In addition, the inhibition in data set [3] amounted to 56.4%.

In data set [3], `Cc1cc(=O)oc2cc(/N=C/c3ccc(O)cc3O)ccc12` came in with an inhibition of 50.3%.

For `Cc1c(C)c2ccc(NCc3ccccc3O)cc2oc1=O`, in data set [4], the Papp at 16 h came to 12.3 ×10⁻⁶ cm/s. The compound also had an inhibition in data set [3] of 47.7%.

In turn, `Cc1c(Cl)c(=O)oc2cc(/N=C/c3ccc(O)cc3O)ccc12` showed an inhibition in [3] of 60.2%.

`O=c1oc2cc(/N=C/c3ccccc3O)ccc2c2c1CCCC2`: in [1], the inhibition at 100 µM stood at 17.2%. Besides, in data set [2], the IC50 turned out to be 841 nM. Further, the inhibition in [3] was 53.7%.

In data set [3], `Cc1ccc(/C=N/c2ccc3c(C)cc(=O)oc3c2)c(O)c1` registered an inhibition of 49.4%.

Regarding `Cc1c(Cl)c(=O)oc2cc(/N=C/c3ccccc3O)ccc12`, in data set [3], the inhibition came to 49.3%.

The compound `Cc1cc(=O)[nH]c2cc(NCc3ccccc3O)ccc12` gave an inhibition in data set [3] of 32.6%.

For the compound `COc1ccc(/C=N/c2ccc3c(C)cc(=O)oc3c2)c(O)c1`, the inhibition in data set [3] was 50.2%.

In the case of `CN1C(C(=O)Nc2ccccn2)=C(O)c2ccccc2S1(=O)=O` [PIROXICAM], the Papp at 16 h in data set [4] turned out to be 1.72 ×10⁻⁶ cm/s.

For `Cc1cc(=O)oc2cc(NCc3ccccc3O)ccc12`, the inhibition at 100 µM in [1] amounted to 39.4%. Besides, the IC50 in [2] came out at 20100 nM. The inhibition in [3] came out at 36.1%.

For the compound `Cc1c(C)c2ccc(/N=C/c3ccc(O)cc3O)cc2oc1=O`, in data set [4], the Papp at 16 h stood at 6.7 ×10⁻⁶ cm/s. This compound registered an inhibition in data set [3] of 57.6%.

For `NCCc1ccc(O)c(O)c1` [DOPAMINE], the Papp at 16 h in data set [4] came out at 0.83 ×10⁻⁶ cm/s.

As to `Cc1cc(=O)[nH]c2cc(/N=C/c3ccccc3O)ccc12`, in [1], the inhibition at 100 µM was 54.2%. Also, the half-maximal inhibitory concentration (IC50) in [2] was 12300 nM. This compound showed an inhibition in [3] of 35.6%.

Regarding `Cc1c(Cl)c(=O)oc2cc(NCc3ccccc3O)ccc12`, the inhibition in data set [3] came to 47.6%.
